{"source": "patent US20090317376A1", "about": "“Compositions And Methods For Lipo Modeling” (Georgetown University MEDICAL SCHOOL, priority 2005, published 2009)", "tested_on": "3T3-L1 preadipocytes", "assay": "Adipocyte differentiation / adipogenesis (Oil red-O staining, leptin and resistin ELISA)", "assay_type": "cell-based, murine", "experimental": "3T3-L1 preadipocytes are stimulated to differentiate to a rounded phenotype and accumulate lipids in the form of lipid droplets when treated with dexamethasone, isobutylmethylxanthine (IBMX), and insulin [54]. The 3T3-L1 cells are primed for differentiation by the incubation with IBMX and dexamethasone, and in some cells insulin, for 24 hrs, then, insulin is withdrawn and replaced with various concentrations of NPY (FIG. 5).\nELISA: NPY ELISA system are purchased from Penninsula Laboratories, bFGF, VEGF and mouse leptin ELISA kits from R&D systems, mouse adiponectin ELISA kit from Linco Research and catecholamine detection system—3CAT EIA from Diagnostic Systems Laboratories. The assays are performed according to the manufacturers' procedures.\nOil Red O staining: Oil Red O solution (0.36% Oil Red O solution in 60% isopropanol) is used to stain lipid droplets in mature adipocytes and paraffin embedded tissues (Chemicon Adipogenesis Assay kit).\n1. Cell culture: 3T3-L1 preadipocyte cells, (gift from Dr. Lane,^34) were cultured in DMEM high glucose media with glutamine, 10% calf sera (Gemini Bioproducts), d-Biotin (8 μg/ml) and Pantothenate (8 μg/ml) (Sigma). SK-N-BE(2) neuroblastoma cells (ATCC) were cultured in EMEM/F12K with 10% fetal bovine sera (FBS). HMVEC endothelial cells (Cambrex) were cultured in endothelial cell growth media (Cambrex). All media was supplemented with 100 units/ml penicillin, 100 μg/ml streptomycin and […] amphotericin. 2. Proliferation assay: Cells were plated onto 96-well dishes, growth-arrested in serum-free media for 24 h, and then were treated with the desired factors for 24 h in the culture media supplemented with 0.25% FBS; 4 hr after treatment 0.5 μCi [^3H] thymidine was added to each well. After 24 h, cells were harvested in a 96-well harvester (Tomtec) and counted in a Betaplate Liquid Scintillation Counter (Wallac). 3. Co-culture: For mitogenic assay and expression studies, co-culture was performed in a Costar Transwell system. Cells were plated on 6-well plates or inserts with 0.4 μm Polyester membranes. At 30% confluence, the inserts were combined with wells containing other cells. Co-culture of neuroblastomas with endothelial cells (EC) were carried out in EC media and preadipocytes in preadipocyte growth media. After the respective treatment, the cells growing on the plates were harvested for RNA isolation. For the mitogenic assay, cells were first growth-arrested in serum-free media for 24 hr, then the inserts placed into the plates and cells treated with desired factors in 0.25% FBS. After 48 hr, the cells were counted with a Beckman Coulter Counter. In both co-culture models, media was collected for Leptin (R&D Systems), Resistin (R&D Systems), and NPY (Bachem) ELISA. 4. Real-time RT-PCR: RNA was isolated using Tri Reagent (Sigma) and cDNA synthesized by iScript cDNA synthesis kit (BioRad). ICycler iQ Detection System (BioRad) was used to perform Real Time PCR. cDNA was amplified for 40 cycles using TaqMan PCR Reagent Kit and pre-designed primers and fluorescein-labeled probes from Applied Biosystems, as previously described^16, according to the manufacturer's procedure. The results were analyzed using software provided by BioRad and expression levels calculated by the comparative CT method using β-actin as an endogenous reference gene, according to the Applied Biosystems' ABI PRISM 7700 User Bulletin #2. 5. TUNEL: TUNEL reaction was performed using In Situ Cell Detection Kit (Roche Diagnostic) and signal converted to visible light using AP-converter. The density of TUNEL positive cells will be measured using NIH ImageJ software (using a plugin written by Wayne Rasband). 6. ELISA: ELISA kits for: NPY (Bachem Laboratories), mouse Leptin, Corticosterone, and Resistin (R&D systems), rat/mouse Insulin and mouse Adiponectin (Linco Research), and mouse Osteocalcin (Biomedical Technologies, Inc.) were used. The assays were performed according to the manufacturers' procedures. 7. […]", "note": "“Also recorded” adds a separate entry of the source."}
{"molecule": "neuropeptide Y [NPY]", "values": [{"measurement": "adipogenesis in cells not originally primed by insulin", "setting": "NPY by itself", "value": "unable to stimulate adipogenesis"}, {"measurement": "leptin secretion", "setting": "differentiated 3T3-L1 adipocytes", "value": "increases leptin secretion; also recorded: increased"}, {"measurement": "differentiation into adipocytes (adipogenesis)", "setting": "insulin preconditioned / primed 3T3-L1 cells, NPY 1×10-14 to 1×10^-8 M", "value": "stimulated differentiation into adipocytes; also recorded: stimulating adipogenesis"}, {"measurement": "resistin secretion", "setting": "preadipocytes primed for differentiation", "value": "increased"}, {"measurement": "lipid deposition / lipid filling (Oil red-O staining)", "setting": "primed 3T3-L1 cells, insulin replaced with NPY", "value": "markedly increased"}]}
{"molecule": "N=C(N)NCCC[C@H](NC(=O)CC1(CC(=O)N2CCN(C3c4ccccc4NC(=O)c4ccccc43)CC2)CCCC1)C(=O)NCCn1c(=O)n(-c2ccccc2)n(-c2ccccc2)c1=O", "note": "(stereo partly drawn) [BIIE0246]", "values": [{"measurement": "block of NPY-induced leptin and resistin secretion and lipid filling", "setting": "Y2R antagonist", "value": "blocked"}]}
